Experimental data as given in ChEMBL document CHEMBL1909046, “DrugMatrix in vitro pharmacology data”.
pIC50, pKi: −log10 of the molar value.

Tests used:
Substance-K receptor = molecular target: T1, Substance-K receptor (Homo sapiens, UniProt P21452); type: cell membranes, CHO, Membrane; settings: cho; further: in other assays of this panel Not Active means under 50% inhibition at 10 µM
T1 sequence (P21452 whole entry): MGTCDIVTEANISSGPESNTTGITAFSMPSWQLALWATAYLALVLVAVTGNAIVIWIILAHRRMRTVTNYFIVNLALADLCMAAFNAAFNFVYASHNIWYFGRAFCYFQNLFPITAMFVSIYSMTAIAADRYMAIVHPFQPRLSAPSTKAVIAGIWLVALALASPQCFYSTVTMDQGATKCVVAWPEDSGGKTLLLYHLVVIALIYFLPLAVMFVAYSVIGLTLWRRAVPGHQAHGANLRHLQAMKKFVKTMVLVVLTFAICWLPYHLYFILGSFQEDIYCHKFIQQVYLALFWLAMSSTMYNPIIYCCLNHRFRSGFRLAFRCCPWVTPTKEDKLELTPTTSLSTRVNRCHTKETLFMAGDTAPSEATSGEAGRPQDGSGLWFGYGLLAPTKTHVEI

[1] = molecular target: T2, Alpha-1A adrenergic receptor (Rattus norvegicus, UniProt P43140); test: DRUGMATRIX: Alpha-1A adrenergic receptor radioligand binding (ligand: prazosin); type: cell membranes, Wistar, Submaxillary gland, Membrane; settings: Not Active = under 50% inhibition at 10 µM
T2 sequence (P43140 whole entry): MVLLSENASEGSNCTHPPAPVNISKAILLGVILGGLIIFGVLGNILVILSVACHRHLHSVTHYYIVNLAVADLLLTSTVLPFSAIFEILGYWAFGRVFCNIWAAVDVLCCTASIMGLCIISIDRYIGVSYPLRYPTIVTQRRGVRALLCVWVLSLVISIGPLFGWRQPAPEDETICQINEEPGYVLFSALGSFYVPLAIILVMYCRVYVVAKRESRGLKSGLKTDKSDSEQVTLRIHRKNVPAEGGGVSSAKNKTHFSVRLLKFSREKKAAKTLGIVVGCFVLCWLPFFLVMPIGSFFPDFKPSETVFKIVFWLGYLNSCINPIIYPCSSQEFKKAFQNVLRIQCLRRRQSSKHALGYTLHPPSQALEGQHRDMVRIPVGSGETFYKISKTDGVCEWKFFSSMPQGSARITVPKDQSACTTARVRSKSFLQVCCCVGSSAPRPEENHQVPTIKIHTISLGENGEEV

Adenosine receptor A1 = molecular target: T3, Adenosine receptor A1 (Homo sapiens, UniProt P30542); type: cell membranes, CHO, Membrane; settings: cho;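 further: radioligand binding assay at the adenosine A1 receptor, with DPCPX serving as the labelled ligand; in other assays of this panel Not Active means under 50% inhibition at 10 µM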
T3 sequence (P30542 whole entry): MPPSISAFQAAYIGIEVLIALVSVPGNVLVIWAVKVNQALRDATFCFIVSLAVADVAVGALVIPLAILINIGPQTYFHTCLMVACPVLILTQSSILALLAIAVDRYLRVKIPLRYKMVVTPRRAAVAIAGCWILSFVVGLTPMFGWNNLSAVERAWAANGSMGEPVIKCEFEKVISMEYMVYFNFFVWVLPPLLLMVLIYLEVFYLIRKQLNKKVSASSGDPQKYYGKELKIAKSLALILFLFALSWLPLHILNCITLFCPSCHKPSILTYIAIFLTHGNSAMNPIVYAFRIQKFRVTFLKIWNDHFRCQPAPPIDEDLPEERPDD

[2] = DRUGMATRIX: Imidazoline I2, Central radioligand binding (ligand: [3H] Idazoxan); type: cell membranes, Rattus norvegicus, Wistar, Cerebral cortex, Membrane; settings: Not Active = under 50% inhibition at 10 µM
[3] = molecular target: Aldo-keto reductase family 1 member B1 (Rattus norvegicus, UniProt P07943); type: tissue-based, Lens of camera-type eye;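 further: inhibition of aldose reductase enzyme activity, measured with DL-glyceraldehyde as the substrate; in other assays of this panel Not Active means under 50% inhibition at 10 µM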
[4] = molecular target: T4, Muscarinic acetylcholine receptor M5 (Homo sapiens, UniProt P08912); type: cell membranes, CHO-K1, Membrane; settings: cho-k1; further: in other assays of this panel Not Active means under 50% inhibition at 10 µM
T4 sequence (P08912 whole entry): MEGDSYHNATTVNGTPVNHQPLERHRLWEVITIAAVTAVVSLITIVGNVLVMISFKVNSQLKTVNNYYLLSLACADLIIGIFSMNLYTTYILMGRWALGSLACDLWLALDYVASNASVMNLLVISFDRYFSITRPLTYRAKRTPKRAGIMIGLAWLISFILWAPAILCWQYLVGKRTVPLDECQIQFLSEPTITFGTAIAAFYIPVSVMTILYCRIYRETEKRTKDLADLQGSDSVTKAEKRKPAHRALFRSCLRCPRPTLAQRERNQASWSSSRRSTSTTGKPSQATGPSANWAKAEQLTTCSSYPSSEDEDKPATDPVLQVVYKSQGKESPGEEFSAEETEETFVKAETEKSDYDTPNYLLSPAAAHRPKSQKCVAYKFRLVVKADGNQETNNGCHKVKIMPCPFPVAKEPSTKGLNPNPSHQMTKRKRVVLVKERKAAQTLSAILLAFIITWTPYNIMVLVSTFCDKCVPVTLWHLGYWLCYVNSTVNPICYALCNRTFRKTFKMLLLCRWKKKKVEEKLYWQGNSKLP

[5] = DRUGMATRIX: Glutamate, NMDA, Agonism radioligand binding (ligand: [3H] CGP-39653); type: cell membranes, Rattus norvegicus, Wistar, Cerebral cortex, Membrane; settings: Not Active = under 50% inhibition at 10 µM
[6] = molecular target: T5, 5-hydroxytryptamine receptor 2C (Homo sapiens, UniProt P28335); test: DRUGMATRIX: Serotonin (5-Hydroxytryptamine) 5-HT2C radioligand binding (ligand: [3H] Mesulergine); type: cell membranes, CHO-K1, Membrane; settings: cho-k1; Not Active = under 50% inhibition at 10 µM
T5 sequence (P28335 whole entry): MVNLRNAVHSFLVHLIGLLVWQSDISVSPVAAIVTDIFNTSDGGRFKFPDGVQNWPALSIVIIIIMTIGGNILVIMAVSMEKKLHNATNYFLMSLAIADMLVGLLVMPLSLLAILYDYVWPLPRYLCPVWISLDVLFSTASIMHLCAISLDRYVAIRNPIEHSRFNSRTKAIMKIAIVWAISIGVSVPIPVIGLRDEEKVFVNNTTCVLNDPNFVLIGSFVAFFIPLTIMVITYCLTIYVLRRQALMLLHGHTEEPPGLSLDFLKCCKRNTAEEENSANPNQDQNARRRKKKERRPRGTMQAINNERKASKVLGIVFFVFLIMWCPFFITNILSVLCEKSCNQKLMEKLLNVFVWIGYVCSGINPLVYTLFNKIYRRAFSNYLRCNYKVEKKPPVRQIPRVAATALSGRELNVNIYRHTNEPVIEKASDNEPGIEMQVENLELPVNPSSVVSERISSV

[7] = DRUGMATRIX: Nicotinic Acetylcholine radioligand binding (ligand: [125I] Epibatidine); type: cell membranes, Membrane; settings: imr-32; Not Active = under 50% inhibition at 10 µM
[8] = DRUGMATRIX: GABAA, Chloride Channel, TBOB radioligand binding (ligand: [3H] TBOB); type: cell membranes, Rattus norvegicus, Wistar, Cerebral cortex, Membrane; settings: Not Active = under 50% inhibition at 10 µM
Melanocortin receptor 4 = Melanocortin receptor 4 (Homo sapiens, UniProt P32245); type: cell membranes, Membrane; settings: hek293; further: in other assays of this panel Not Active means under 50% inhibition at 10 µM
Chain of Melanocortin receptor 4 (P32245 whole entry): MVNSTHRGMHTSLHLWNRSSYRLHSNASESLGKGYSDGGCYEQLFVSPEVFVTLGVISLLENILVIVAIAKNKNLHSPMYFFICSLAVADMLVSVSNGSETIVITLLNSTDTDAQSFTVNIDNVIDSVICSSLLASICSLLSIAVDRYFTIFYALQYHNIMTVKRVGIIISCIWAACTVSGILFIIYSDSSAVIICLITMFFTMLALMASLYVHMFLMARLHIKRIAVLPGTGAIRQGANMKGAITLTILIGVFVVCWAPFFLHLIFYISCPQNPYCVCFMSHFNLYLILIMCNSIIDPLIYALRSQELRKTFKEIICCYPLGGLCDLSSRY

[9] = DRUGMATRIX: Platelet-Derived Growth Factor (PDGF) radioligand binding (ligand: [125I] PDGF); type: cell-based; settings: nih3t3; Not Active = under 50% inhibition at 10 µM

SMILES	IC50 (Substance-K receptor)	IC50 [1]	IC50 (Adenosine receptor A1)	IC50 [2]	Ki [2]	IC50 [3]	IC50 [4]	IC50 [5]	Ki [5]	IC50 [6]	IC50 [7]	Ki [7]	IC50 [8]	Ki [8]	IC50 (Melanocortin receptor 4)	IC50 [9]	Ki [9]	pIC50 ([8]; read-out: IC50)	pKi ([8]; read-out: Ki)
Cc1ncc([N+](=O)[O-])n1CC(C)O (stereo unspecified) [SECNIDAZOLE]	Not Active	Not Active	Not Active	Not Active	Not Active	Not Active	Not Active	Not Active	Not Active	Not Active	Not Active	Not Active	Not Active	Not Active	Not Active	Not Active	Not Active	–	–
COS(C)(=O)=O [METHANESULFONIC ACID METHYL ESTER]	Not Active	Not Active	Not Active	Not Active	Not Active	Not Active	Not Active	Not Active	Not Active	Not Active	Not Active	Not Active	Not Active	Not Active	Not Active	Not Active	Not Active	–	–
CC(C)(C)NCC(O)c1ccc(O)c(CO)c1 (stereo unspecified) [ALBUTEROL]	Not Active	Not Active	Not Active	Not Active	Not Active	Not Active	Not Active	Not Active	Not Active	Not Active	Not Active	Not Active	Not Active	Not Active	Not Active	Not Active	Not Active	–	–
Cc1ccc(C(=O)C(C)CN2CCCCC2)cc1 (stereo unspecified) [TOLPERISONE]	Not Active	Not Active	Not Active	Not Active	Not Active	Not Active	Not Active	Not Active	Not Active	Not Active	Not Active	Not Active	Not Active	Not Active	Not Active	Not Active	Not Active	–	–
CN[C@H](CC(C)C)C(=O)N[C@H]1C(=O)N[C@@H](CC(N)=O)C(=O)N[C@H]2C(=O)N[C@H]3C(=O)N[C@H](C(=O)N[C@H](C(=O)O)c4cc(O)cc(O)c4-c4cc3ccc4O)[C@H](O)c3ccc(c(Cl)c3)Oc3cc2cc(c3O[C@@H]2O[C@H](CO)[C@@H](O)[C@H](O)[C@H]2O[C@H]2C[C@](C)(N)[C@H](O)[C@H](C)O2)Oc2ccc(cc2Cl)[C@H]1O [VANCOMYCIN]	Not Active	Not Active	Not Active	Not Active	Not Active	Not Active	Not Active	Not Active	Not Active	Not Active	Not Active	Not Active	Not Active	Not Active	Not Active	Not Active	Not Active	–	–
CC(=O)[C@H]1CC[C@H]2[C@@H]3CCC4=CC(=O)CC[C@]4(C)[C@H]3CC[C@]12C [PROGESTERONE]	Not Active	Not Active	Not Active	Not Active	Not Active	Not Active	Not Active	Not Active	Not Active	Not Active	Not Active	Not Active	–	–	Not Active	Not Active	Not Active	4.60	4.65
C[C@](N)(Cc1ccc(O)cc1)C(=O)O [METYROSINE]	Not Active	Not Active	Not Active	Not Active	Not Active	Not Active	Not Active	Not Active	Not Active	Not Active	Not Active	Not Active	Not Active	Not Active	Not Active	Not Active	Not Active	–	–
CC(C)[C@H](N)C(=O)OCCOCn1cnc2c(=O)nc(N)[nH]c21 [VALACYCLOVIR]	Not Active	Not Active	Not Active	Not Active	Not Active	Not Active	Not Active	Not Active	Not Active	Not Active	Not Active	Not Active	Not Active	Not Active	Not Active	Not Active	Not Active	–	–
